Literature values as cited in patent US20120184504A1, “"The Use of a PAR-1 Antagonist in Combination with a P2Y12 ADP Receptor Antagonist for Inhibition of Thrombosis"” (priority 2009, published 2012).
Like-named read-outs stand apart in the source and are kept apart here.

Experiments:
[1] = system: ischemic events and bleeding in patients; details: two phase 2 trials; cited from earlier work
[2] = system: CFRs (coronary thrombus formation); details: pigs, cited from earlier work
[3] = system: clinical events and bleeding in patients with acute coronary syndromes; details: cited from earlier work

CCOC(=O)N[C@@H]1CC[C@@H]2[C@@H](C1)C[C@H]1C(=O)O[C@H](C)[C@H]1[C@H]2/C=C/c1ccc(-c2cccc(F)c2)cn1 [SCH 530348]
bleeding [1]: without an accompanying increase in bleeding | incidence of ischemic events [1]: strong trends towards reduced incidence of ischemic events

CC(=O)Oc1ccccc1C(=O)O [aspirin]
effect on CFRs ([2]; aspirin alone 7 mg/kg): reduced, but did not completely abolish

COC(=O)[C@H](c1ccccc1Cl)N1CCc2sccc2C1 [clopidogrel]
effect on CFRs ([2]; clopidogrel alone 5 mg/kg): reduced, but did not completely abolish

CC(=O)Oc1cc2c(s1)CCN(C(C(=O)C1CC1)c1ccccc1F)C2 (stereo not drawn) [prasugrel]
remaining prevalence of clinical events [3]: 10% | incremental reduction in clinical events ([3]; prasugrel versus clopidogrel): 19%
